The assay concerns the target T1, KRAS G12C 1-169, his-tagged protein, GDP-loaded (Homo sapiens, UniProt P01116, G12C).
T1 construct: KRAS G12C 1-169, his-tagged protein, GDP-loaded
Put plainly: Biochemical assay: covalent modification of KRAS G12C measured by mass spectrometry (RapidFire/TOF or Q-Exactive). As to conditions: covalent binding to KRAS G12C; compounds of structure (I). In a few lines: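 GDP-loaded his-tagged KRAS G12C 1-169 at 2 μM in 20 mM Hepes, 150 mM NaCl, 1 mM MgCl2 incubated at room temperature with compound (10, 30 or 100 μM final, 2% DMSO) for 30 min, 2 h or 24 h, then quenched with formic acid. Intact-protein LC-MS (RapidFire/TOF or Q-Exactive) with deconvolution quantified modified versus unmodified protein.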

As to `C=CC(=O)N1CCN(c2nc(NC3CCN(C4CC4)CC3)nc3c(F)c(-c4cc(O)cc5ccccc45)c(Cl)cc23)CC1` [Example I-75, 1-(4-(6-chloro-2-(1-cyclo-propylpiperidin-4-ylamino)-8-fluoro-7-(3-hydroxy-naphthalen-1-yl)quinazolin-4-yl)piperazin-1-yl)prop-2-en-1-one], the Binding % result is given as “+++ (+++ indicates binding activity greater than 90%)”. Turning to `C=CC(=O)N1CCN(c2nc(OCCN3CCC(F)CC3)nc3c(F)c(-c4c(O)cccc4F)c(Cl)cc23)CC1` [Example I-76, 1-(4-(6-chloro-8-fluoro-7-(2-fluoro-6-hydroxyphenyl)-2-(2-(4-fluoro-piperidin-1-yl)ethoxy)quinazolin-4-yl)piperazin-1-yl)prop-2-en-1-one], the Binding % result was “+++ (+++ indicates binding activity greater than 90%)”. Then `C=CC(=O)N1CCN(c2nc(NC3CCN(C(C)C)CC3)nc3c(F)c(-c4cc(O)cc5ccccc45)c(Cl)cc23)CC1` [Example I-77, 1-(4-(6-chloro-8-fluoro-7-(3-hydroxy-naphthalen-1-yl)-2-(1-isopropyl-piperidin-4-ylamino)quinazolin-4-yl)piperazin-1-yl)prop-2-en-1-one], with “+++ (+++ indicates binding activity greater than 90%)”; and `C=CC(=O)N1CCN(c2nc(NC3CCN(C4CC4)CC3)nc3c(F)c(-c4c(C)cccc4O)c(Cl)cc23)CC1` [Example I-80, 1-(4-(6-chloro-2-(1-cyclopropyl-piperidin-4-ylamino)-8-fluoro-7-(2-hydroxy-6-methylphenyl)quinazolin-4-yl)piperazin-1-yl) prop-2-en-1-one], with “+++ (+++ indicates binding activity greater than 90%)”. For the compound `C=CC(=O)N1CCN(c2nc(OCCO)nc3c(F)c(-c4cc(O)cc5ccccc45)c(Cl)cc23)CC1` [Example I-83, 1-(4-(6-chloro-8-fluoro-2-(2-hydroxyethoxy)-7-(3-hydroxy-naphthalen-1-yl)quinazolin-4-yl)piperazin-1-yl)prop-2-en-1-one], the Binding % result is listed as “+++ (+++ indicates binding activity greater than 90%)”. Then `C=CC(=O)N1CCN(c2nc(NC3CCN(C(C)C)CC3)nc3c(F)c(-c4c(O)cccc4F)c(Cl)cc23)CC1` [Example I-84, 1-(4-(6-chloro-8-fluoro-7-(2-fluoro-6-hydroxyphenyl)-2-(1-isopropyl-piperidin-4-ylamino)quinazolin-4-yl)piperazin-1-yl)prop-2-en-1-one], with “+++ (+++ indicates binding activity greater than 90%)”; and `C=CC(=O)N1CCN(c2nc(C(N)=O)nc3c(F)c(-c4c(O)cccc4F)c(Cl)cc23)CC1` [Example I-85, 4-(4-acryloyl-piperazin-1-yl)-6-chloro-8-fluoro-7-(2-fluoro-6-hydroxyphenyl) quinazoline-2-carboxamide], with “+++ (+++ indicates binding activity greater than 90%)”. Then `C=CC(=O)N1CCN(c2nc(OCCNC)nc3c(F)c(-c4c(O)cccc4F)c(Cl)cc23)CC1` [Example I-86, 1-(4-(6-chloro-8-fluoro-7-(2-fluoro-6-hydroxyphenyl)-2-(2-(methyl-amino)ethoxy)quinazolin-4-yl)piperazin-1-yl)prop-2-en-1-one], with “+++ (+++ indicates binding activity greater than 90%)”. For `C=CC(=O)N1CCN(c2nc(OCCc3cccc(C)n3)nc3c(F)c(-c4c(O)cccc4F)c(Cl)cc23)CC1` [Example I-89, 1-(4-(6-chloro-8-fluoro-7-(2-fluoro-6-hydroxyphenyl)-2-(2-(6-methyl-pyridin-2-yl)ethoxy)quinazolin-4-yl)piperazin-1-yl)prop-2-en-1-one] the value was “+++ (+++ indicates binding activity greater than 90%)”.

Consider `C=CC(=O)N1CCN(c2nc(C(=O)N3CCN(C)CC3)nc3c(F)c(-c4c(O)cccc4F)c(Cl)cc23)CC1` [Example I-90, 1-(4-(6-chloro-8-fluoro-7-(2-fluoro-6-hydroxyphenyl)-2-(4-methyl-piperazine-1-carbonyl)quinazolin-4-yl)piperazin-1-yl)prop-2-en-1-one], for which the Binding % entry was “+++ (+++ indicates binding activity greater than 90%)”. For `C=CC(=O)N1CCN(c2nc(OCCN3CCOCC3)nc3c(F)c(-c4c(O)ccc(F)c4F)c(Cl)cc23)CC1` [Example I-91, 1-(4-(6-chloro-7-(2,3-difluoro-6-hydroxyphenyl)-8-fluoro-2-(2-morpholino-ethoxy)quinazolin-4-yl)piperazin-1-yl)prop-2-en-1-one] the value was “+++ (+++ indicates binding activity greater than 90%)”; for `C=CC(=O)N1CCN(c2nc(OC3CCN(C)CC3)nc3c(F)c(-c4c(O)cccc4F)c(Cl)cc23)CC1` [Example I-92, 1-(4-(6-chloro-8-fluoro-7-(2-fluoro-6-hydroxyphenyl)-2-(1-methyl-piperidin-4-yloxy)quinazolin-4-yl)piperazin-1-yl)prop-2-en-1-one], “+++ (+++ indicates binding activity greater than 90%)”. Take `C=CC(=O)N1CCN(c2nc(OC3CCN(C)CC3)nc3c(F)c(-c4cc(O)cc5ccccc45)c(Cl)cc23)CC1` [Example I-93, 1-(4-(6-chloro-8-fluoro-7-(3-hydroxy-naphthalen-1-yl)-2-(1-methyl-piperidin-4-yloxy)quinazolin-4-yl)piperazin-1-yl)prop-2-en-1-one]: the Binding % entry is “+++ (+++ indicates binding activity greater than 90%)”. For `C=CC(=O)N1CCN(c2nc(OC3CCN(C4CC4)CC3)nc3c(F)c(-c4c(O)cccc4F)c(Cl)cc23)CC1` [Example I-94, 1-(4-(6-chloro-2-(1-cyclopropyl-piperidin-4-yloxy)-8-fluoro-7-(2-fluoro-6-hydroxyphenyl)quinazolin-4-yl)piperazin-1-yl)prop-2-en-1-one] the value was “+++ (+++ indicates binding activity greater than 90%)”; for `C=CC(=O)N1CCN(c2nc(OCc3cccc(C)n3)nc3c(F)c(-c4c(O)cccc4F)c(Cl)cc23)CC1` [Example I-99, 1-(4-(6-chloro-8-fluoro-7-(2-fluoro-6-hydroxyphenyl)-2-((6-methyl-pyridin-2-yl)methoxy)quinazolin-4-yl)piperazin-1-yl)prop-2-en-1-one], “+++ (+++ indicates binding activity greater than 90%)”. Regarding `C=CC(=O)N1CCN(c2nc(OCCc3ccc(F)cn3)nc3c(F)c(-c4c(O)cccc4F)c(Cl)cc23)CC1` [Example I-100, 1-(4-(6-chloro-8-fluoro-7-(2-fluoro-6-hydroxyphenyl)-2-(2-(5-fluoro-pyridin-2-yl)ethoxy)quinazolin-4-yl)piperazin-1-yl) prop-2-en-1-one], the Binding % result is on record as “+++ (+++ indicates binding activity greater than 90%)”. Then `C=CC(=O)N1CCN(c2nc(OCc3cnc(C)nc3)nc3c(F)c(-c4c(O)cccc4F)c(Cl)cc23)CC1` [Example I-101, 1-(4-(6-chloro-8-fluoro-7-(2-fluoro-6-hydroxyphenyl)-2-((2-methyl-pyrimidin-5-yl)methoxy)quinazolin-4-yl)piperazin-1-yl) prop-2-en-1-one], with “+++ (+++ indicates binding activity greater than 90%)”; and `C=CC(=O)N1CCN(c2nc(OCc3ccc(C)nc3)nc3c(F)c(-c4c(O)cccc4F)c(Cl)cc23)CC1` [Example I-104, 1-(4-(6-chloro-8-fluoro-7-(2-fluoro-6-hydroxyphenyl)-2-((6-methyl-pyridin-3-yl)methoxy)quinazolin-4-yl)piperazin-1-yl) prop-2-en-1-one], with “+ (+ indicates binding activity up to 50%)”; and `C=CC(=O)N1CCN(c2nc(OCc3ncccn3)nc3c(F)c(-c4c(O)cccc4F)c(Cl)cc23)CC1` [Example I-105, 1-(4-(6-chloro-8-fluoro-7-(2-fluoro-6-hydroxyphenyl)-2-(pyrimidin-2-ylmethoxy)quinazolin-4-yl)piperazin-1-yl) prop-2-en-1-one], with “+++ (+++ indicates binding activity greater than 90%)”. Then `C=CC(=O)N1CCN(c2nc(N3CC(N(C)C)C3)nc3c(F)c(-c4cc(O)cc5ccccc45)c(Cl)cc23)CC1` [Example I-106, 1-(4-(6-chloro-2-(3-(dimethyl-amino)azetidin-1-yl)-8-fluoro-7-(3-hydroxy-naphthalen-1-yl)quinazolin-4-yl)piperazin-1-yl) prop-2-en-1-one], with “+++ (+++ indicates binding activity greater than 90%)”; and `C=CC(=O)N1CCN(c2nc(OCCN3CC(F)(F)C3)nc3c(F)c(-c4cc(O)cc5ccccc45)c(Cl)cc23)CC1` [Example I-107, 1-(4-(6-chloro-2-(2-(3,3-difluoro-azetidin-1-yl)ethoxy)-8-fluoro-7-(3-hydroxy-naphthalen-1-yl)quinazolin-4-yl)piperazin-1-yl) prop-2-en-1-one], with “+++ (+++ indicates binding activity greater than 90%)”; and `C=CC(=O)N1CCN(c2nc(OCCN3CCOCC3)nc3c(F)c(-c4cc(O)cc5cccnc45)c(Cl)cc23)CC1` [Example I-108, 1-(4-(6-chloro-8-fluoro-7-(6-hydroxy-quinolin-8-yl)-2-(2-morpholino-ethoxy)quinazolin-4-yl)piperazin-1-yl) prop-2-en-1-one], with “+++ (+++ indicates binding activity greater than 90%)”.

Consider `C=CC(=O)N1CCN(c2nc(OCc3ncco3)nc3c(F)c(-c4c(O)cccc4F)c(Cl)cc23)CC1` [Example I-109, 1-(4-(6-chloro-8-fluoro-7-(2-fluoro-6-hydroxyphenyl)-2-(oxazol-2-ylmethoxy)quinazolin-4-yl)piperazin-1-yl) prop-2-en-1-one], for which the Binding % entry was “+++ (+++ indicates binding activity greater than 90%)”. In the case of `C=CC(=O)N1CCN(c2nc(NC3CCN(CC4CC4)CC3)nc3c(F)c(-c4c(O)cccc4F)c(Cl)cc23)CC1` [Example I-110, 1-(4-(6-chloro-2-(1-(cyclopropyl-methyl)piperidin-4-ylamino)-8-fluoro-7-(2-fluoro-6-hydroxyphenyl)quinazolin-4-yl)piperazin-1-yl) prop-2-en-1-one], the Binding % entry is “+++ (+++ indicates binding activity greater than 90%)”.
